Experimental findings from patent US7723393B2, “Cycloalkylidene compounds as selective estrogen receptor modulators” (GlaxoSmithKline LLC, priority 2005, dated 2010) are described below.

One may read the melting point as the temperature of the solid-liquid transition.

For the compound `CC1(C)CC(=C(c2ccccc2)c2ccc(OCCO)cc2)CC(C)(C)C1` [Example 3, 2-({4-[Phenyl(3,3,5,5-tetramethylcyclohexylidene)methyl]phenyl}oxy)ethanol], the melting point was in the range of 131 to 132 °C. With `CC1(C)CC(=C(c2ccccc2)c2ccc(OCCOCCO)cc2)CC(C)(C)C1` [Example 4, 2-{[2-({4-[Phenyl(3,3,5,5-tetramethylcyclohexylidene)methyl]phenyl}oxy)ethyl]oxy}ethanol], the melting point lay within 116 to 117 °C. As for `CC1(C)CC(=C(c2ccc(F)cc2)c2ccc(OCC#N)cc2)CC(C)(C)C1` [Example 7, ({4-[(4-Fluorophenyl)(3,3,5,5-tetramethylcyclohexylidene)methyl]phenyl}oxy)acetonitrile], the figure is 100 to 101 °C.
